Data as given in patent US7244722B2, “Amino-substituted 1H-pyrazin-2-ones and 1H-quinoxalin-2-ones” (Biovitrum AB, priority 2002, dated 2007).
Where a name gives a salt, the structure may show the parent alone.

Key:
human 5-HT2A receptor = biological target: T1, human 5-HT2A receptor (Homo sapiens, UniProt P28223); assay: 5-HT2A receptor affinity assay: competition with 3H-labeled LSD on membranes of transfected CHO cells; details: displacement of 3H-LSD; membranes from transfected CHO cell line stably expressing the human 5-HT2A receptor; non-specific binding defined with mianserin (5 μM)
T1 construct: expressed in transfected cells
Experimental: The 5-HT2A receptor affinity of compounds in the Examples was determined in competition experiments, where the ability of each compound in serial dilution to displace ^3H-labeled lysergic diethyl amide (LSD), bound to membranes prepared from a transfected CHO cell line stably expressing the human 5-HT2A receptor protein, was measured after rapid filtration through glass fiber filters. Non-specific binding was defined using mianserin (5 μM). The 5-HT2A receptor affinity values are expressed as Ki values.

T1 sequence (P28223 whole entry): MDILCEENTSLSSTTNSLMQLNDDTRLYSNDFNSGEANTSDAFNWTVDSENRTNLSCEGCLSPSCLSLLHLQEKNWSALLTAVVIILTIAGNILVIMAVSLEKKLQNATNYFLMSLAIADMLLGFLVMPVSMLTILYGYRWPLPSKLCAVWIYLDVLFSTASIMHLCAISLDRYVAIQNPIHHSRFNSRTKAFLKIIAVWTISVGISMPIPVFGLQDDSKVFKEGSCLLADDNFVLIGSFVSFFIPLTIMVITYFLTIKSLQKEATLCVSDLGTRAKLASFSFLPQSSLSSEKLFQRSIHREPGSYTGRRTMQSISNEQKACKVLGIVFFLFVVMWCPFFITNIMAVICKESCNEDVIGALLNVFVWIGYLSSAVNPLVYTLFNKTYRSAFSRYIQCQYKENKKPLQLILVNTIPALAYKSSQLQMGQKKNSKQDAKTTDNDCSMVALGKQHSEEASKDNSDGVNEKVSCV

Row | melting point | Ki (human 5-HT2A receptor) [nM] | SMILES
1 | 105 to 108 °C |  | O=c1c(N2CCNCC2)nccn1CCOc1ccc([N+](=O)[O-])cc1F (as salt: hydrochloride) [Example 1, 1-[2-(2-Fluoro-4-nitrophenoxy)ethyl]-3-(1-piperazinyl)-2(1H)-pyrazinone]
2 | 193 to 195 °C |  | O=c1c(N2CCNCC2)nccn1CCOc1cc(F)c(F)cc1F (as salt: hydrochloride) [Example 3, 3-(1-Piperazinyl)-1-[2-(2,4,5-trifluorophenoxy)ethyl]-2(1H)-pyrazinone]
3 | 196 to 198 °C (dec.) |  | O=c1c(N2CCNCC2)nccn1CCOc1c(F)c(F)cc(F)c1F (as salt: hydrochloride) [Example 4, 3-(1-Piperazinyl)-1-[2-(2,3,5,6-tetrafluorophenoxy)ethyl]-2(1H)-pyrazinone]
4 | 214 to 214.5 °C |  | O=c1c(N2CCN(Cc3ccccc3)CC2)nccn1CCOc1cc(F)c(F)cc1F (as salt: hydrochloride) [Example 63, 3-(4-Benzylpiperazin-1-yl)-1-[2-(2,4,5-trifluorophenoxy)ethyl]pyrazin-2(1H)-one]
5 | 113.4 to 116.6 °C (dec.) |  | O=c1c(N2CCNCC2)nccn1CCCCOc1cc(F)c(F)cc1F (as salt: trifluoroacetate) [Example 58, 1-[4-(2,4,5-Trifluorophenoxy)butyl]-3-(1-piperazinyl)-2(1H)-pyrazinone]
6 | 100.3 to 100.9 °C (dec.) |  | O=c1c(N2CCNCC2)nccn1CCCOc1cc(F)c(F)cc1F (as salt: trifluoroacetate) [Example 59, 1-[3-(2,4,5-Trifluorophenoxy)propyl]-3-(1-piperazinyl)-2(1H)-pyrazinone]
7 | 137 to 139 °C |  | CC(c1ccccc1)N1CCN(c2nccn(CCOc3cc(F)c(F)cc3F)c2=O)CC1 (racemic) (as salt: hydrochloride) [Example 60, 3-[4-(1-Phenylethyl)piperazin-1-yl]-1-[2-(2,4,5-trifluorophenoxy)ethyl]pyrazin-2(1H)-one]
8 |  | 2.2 | O=c1c(N2CCNCC2)nccn1CCOc1cc(F)c(F)cc1F [Example 3, 3-(1-Piperazinyl)-1-[2-(2,4,5-trifluorophenoxy)ethyl]-2(1H)-pyrazinone]
9 |  | 29 | O=c1c(N2CCNCC2)nccn1CCOc1ccc(F)c(F)c1F [Example 13, 3-(1-Piperazinyl)-1-[2-(2,3,4-trifluorophenoxy)ethyl]-2(1H)-pyrazinone]
10 | 69 to 70 °C | 3.6 | O=C(c1ccccc1)c1cccc(OCCn2ccnc(N3CCNCC3)c2=O)c1 [Example 24, 1-[2-(3-Benzoylphenoxy)ethyl]-3-(1-piperazinyl)-2(1H)-pyrazinone]
11 |  | 0.15 | O=c1c(N2CCN(CCc3ccccc3)CC2)nccn1CCOc1cc(F)c(F)cc1F [Example 62, 3-[4-(2-Phenylethyl)piperazin-1-yl-]1-[2-(2,4,5-trifluorophenoxy)ethyl]pyrazin-2(1H)-one]
12 |  | 1.4 | O=c1c(N2CCN(Cc3ccccc3)CC2)nccn1CCOc1cc(F)c(F)cc1F [Example 63, 3-(4-Benzylpiperazin-1-yl)-1-[2-(2,4,5-trifluorophenoxy)ethyl]pyrazin-2(1H)-one]

Further lines, the compound ahead of its results:

Row | SMILES | melting point | Ki (human 5-HT2A receptor) [nM]
13 | CN(C)c1cccc(OCCn2ccnc(N3CCNCC3)c2=O)c1 (as salt: fumarate) [Example 20, 1-{2-[3-(N,N-Dimethylamino)phenoxy]ethyl}-3-(1-piperazinyl)-pyrazin-2(1H)-one] | 180 to 191 °C | 
14 | O=c1c(N2CCNCC2)nccn1CCOc1noc2ccccc12 (as salt: hydrochloride) [Example 9, 1-[2-(1,2-Benzisoxazol-3-yloxy)ethyl]-3-(1-piperazinyl)-2(1H)-pyrazinone] | 174 to 176 °C | 
15 | C=CCc1ccc(OCCn2ccnc(N3CCNCC3)c2=O)c(OC)c1 (as salt: maleate) [Example 65, 1-[2-(4-Allyl-2-methoxyphenoxy)ethyl]-3-piperazin-1-ylpyrazin-2(1H)-one] | 158 to 160 °C | 
16 | O=c1ccc2ccc(OCCn3ccnc(N4CCNCC4)c3=O)cc2o1 [Example 2, 1-{2-[(2-Oxo-2H-chromen-7-yl)oxy]ethyl}-3-(1-piperazinyl)-2(1H)-pyrazinone] |  | 152
17 | N#Cc1cccc(OCCn2ccnc(N3CCNCC3)c2=O)c1 [Example 7, 1-[2-(3-Cyanophenoxy)ethyl]-3-(1-piperazinyl)-2(1H)-pyrazinone] | 49 to 52 °C | 
18 | CCCCOc1cccc(OCCn2ccnc(N3CCNCC3)c2=O)c1 [Example 11, 1-[2-(3-n-Butyloxyphenoxy)ethyl]-3-(1-piperazinyl)-2(1H)-pyrazinone] |  | 2.5
19 | O=c1c(N2CCNCC2)nccn1CCOc1cccc([N+](=O)[O-])c1 [Example 23, 1-[2-(3-Nitrophenoxy)ethyl]-3-(1-piperazinyl)-2(1H)-pyrazinone] | 171 °C | 13
20 | O=c1c(N2CCNCC2)nccn1CCOc1cc(F)cc(F)c1 [Example 25, 1-[2-(3,5-Difluorophenoxy)ethyl]-3-(1-piperazinyl)-2(1H)-pyrazinone] | 119 to 121 °C | 
21 | O=c1c(N2CCNCC2)nccn1CCOc1ccc(C(F)(F)F)cc1 [Example 29, 1-[2-(4-Trifluoromethylphenoxy)ethyl]-3-(1-piperazinyl)-2(1H)-pyrazinone] |  | 8
22 | O=c1c(N2CCNCC2)nccn1CCOc1ccc(Oc2ccccc2)cc1 [Example 31, 1-[2-{4-Phenoxy-(phenoxy)}ethyl]-3-(1-piperazinyl)-2(1H)-pyrazinone] |  | 4.4
